Data published in patent US8148375B2, “(Cyclopropylphenyl)phenyloxamides, method for the production thereof, and use of same as a medicament” (Sanofi-Aventis, priority 2007, dated 2012).

Target: T1, GPCR GPR40 (Homo sapiens, UniProt O14842)
T1 construct: expressed in transfected cells; host or cells: HEK293
Assay: In-vitro FLIPR assay with recombinant cells which express the GPCR GPR40
Type: cell-based
Details: agonist-induced intracellular Ca2+ change in recombinant HEK293 cells expressing GPR40; relative to 10 μM linoleic acid = 100%
Description: In-vitro FLIPR Assay with Recombinant Cells which Express the GPCR GPR40
Function-testing assays were carried out by means of the FLIPR technique (“fluorescence imaging plate reader”, Molecular Devices Corp.). For this purpose, agonist-induced alterations in the intracellular concentration of Ca^2+ in recombinant HEK293 cells which express the GPCR GPR40 were determined.
For the investigations, cells were seeded in 96-well microtiter plates (60 000 cells/well) and left to grow overnight. The medium was removed and the cells were incubated in buffer which contained the fluorescent dye Fluo-4. After this loading with dye, the cells were washed, test substance was added and alterations in the intracellular Ca^2+ concentration were measured in the FLIPR instrument. Results have been depicted as percentage alteration relative to the control (0%: no test substance added; 100%: 10 μM reference agonist linoleic acid added) used to calculate dose/activity plots and EC50 values were determined.

T1 sequence (O14842 whole entry): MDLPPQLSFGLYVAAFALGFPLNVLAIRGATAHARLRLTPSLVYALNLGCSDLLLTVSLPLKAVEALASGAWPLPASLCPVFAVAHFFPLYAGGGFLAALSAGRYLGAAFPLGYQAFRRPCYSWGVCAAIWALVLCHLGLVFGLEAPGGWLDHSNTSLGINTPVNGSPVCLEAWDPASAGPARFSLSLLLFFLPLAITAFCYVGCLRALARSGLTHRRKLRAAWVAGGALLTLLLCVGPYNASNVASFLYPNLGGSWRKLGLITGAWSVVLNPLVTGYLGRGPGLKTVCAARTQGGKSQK

SMILES | EC50 [nM]
O=C(Nc1ccc(C2CC2C(=O)O)cc1)C(=O)Nc1ccc(Cl)cc1C(F)(F)F (centres unmarked) [Example 2] | 700
O=C(Nc1ccc(C2CC2C(=O)O)cc1)C(=O)Nc1cccc(Cl)c1Cl (centres unmarked) [Example 3] | 800
